Assay results: US20250257086A1, “EGFR DEGRADATION AGENT” (Beijing Tide Pharmaceutical Co., Ltd., priority 2022, published 2025)

Target: Ba/F3 (EGFR^L858R/T790M/C797S) cells (Homo sapiens, UniProt P00533, T790M/C797S/L858R, cells depend on it)
Experiment: Antiproliferative activity on Ba/F3 (EGFR L858R/T790M/C797S) cells (CTG)
Assay type: cell-based
Conditions: 72h incubation, CTG luminescence, read-out: IC50 (nM), antiproliferative activity
Procedure: 30 nL of the compound dilution was added to a 384-well plate by Echo (Labcyte, Echo550).
The percent inhibition rate (% inhibition) was calculated by the following formula
[formula] • LUMcmpd: Luminescence value of assay compound. • LUMpositive: Average LUM value of positive drug with a concentration of 10 μM. • LUMvehicle: Average LUM value of negative control group without drug treatment.
The nonlinear regression curve (dose response-variable slope) between the value of inhibition rate (%) and the logarithm of compound concentration was fitted with graphpad prism 8.0, the effect dose curve of compound was drawn, and the IC50 value was calculated.
Y=Bottom+(Top−Bottom)/(1+10^((Log IC50−X)*HillSlope)) • X-axis: logarithm of compound concentration; Y axis: inhibition rate (% inhibition).

Sequence of Ba/F3 (EGFR^L858R/T790M/C797S) cells (P00533 whole entry T790M/C797S/L858R): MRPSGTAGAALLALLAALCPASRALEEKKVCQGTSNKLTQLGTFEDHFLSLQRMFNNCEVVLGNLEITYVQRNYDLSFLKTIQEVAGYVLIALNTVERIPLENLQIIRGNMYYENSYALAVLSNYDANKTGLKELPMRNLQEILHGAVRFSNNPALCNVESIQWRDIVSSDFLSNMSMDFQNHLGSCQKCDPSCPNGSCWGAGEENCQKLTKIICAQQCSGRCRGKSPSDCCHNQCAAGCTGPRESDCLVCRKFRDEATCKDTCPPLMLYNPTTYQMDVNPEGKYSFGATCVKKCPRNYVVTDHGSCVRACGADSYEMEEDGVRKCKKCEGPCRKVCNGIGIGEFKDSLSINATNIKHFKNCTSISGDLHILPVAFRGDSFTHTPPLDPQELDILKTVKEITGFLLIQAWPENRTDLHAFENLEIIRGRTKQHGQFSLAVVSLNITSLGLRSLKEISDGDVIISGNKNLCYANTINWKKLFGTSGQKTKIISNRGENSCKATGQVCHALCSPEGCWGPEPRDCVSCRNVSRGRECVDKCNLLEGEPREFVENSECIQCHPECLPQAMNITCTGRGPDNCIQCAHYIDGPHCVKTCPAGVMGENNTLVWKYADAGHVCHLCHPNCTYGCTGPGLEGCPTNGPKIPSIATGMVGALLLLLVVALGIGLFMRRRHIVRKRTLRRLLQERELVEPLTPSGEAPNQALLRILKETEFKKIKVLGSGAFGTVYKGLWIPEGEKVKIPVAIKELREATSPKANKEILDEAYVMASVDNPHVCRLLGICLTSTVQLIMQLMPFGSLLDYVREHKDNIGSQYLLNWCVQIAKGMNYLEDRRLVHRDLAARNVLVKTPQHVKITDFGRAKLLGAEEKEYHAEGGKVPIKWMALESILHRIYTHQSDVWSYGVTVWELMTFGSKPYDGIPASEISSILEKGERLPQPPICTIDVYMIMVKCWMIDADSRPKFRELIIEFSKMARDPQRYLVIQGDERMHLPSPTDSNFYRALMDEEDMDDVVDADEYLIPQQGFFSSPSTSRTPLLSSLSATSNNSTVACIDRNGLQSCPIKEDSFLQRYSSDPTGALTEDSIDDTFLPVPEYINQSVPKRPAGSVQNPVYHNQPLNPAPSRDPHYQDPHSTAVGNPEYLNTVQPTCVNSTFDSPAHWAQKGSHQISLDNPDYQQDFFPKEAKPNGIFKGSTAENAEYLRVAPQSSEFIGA

Compound | GI50
COc1cc(N2CCC(N3CCN(CCCC#Cc4cccc5c4CN(C4CCC(=O)NC4=O)C5=O)CC3)CC2)c(NC(=O)/C=C/c2cccs2)cc1Nc1ncc(Cl)c(Nc2ccccc2P(C)(C)=O)n1 (stereo not shown) [Compound D583, (E)-N-(5-((5-chloro-4-((2-(dimethylphosphoryl)phenyl)amino)pyrimidin-2-yl)amino)-2-(4-(4-(5-(2-(2,6-dioxopiperidin-3-yl)-1-oxoisoindolin-4-yl)pent-4-yn-1-yl)piperazin-1-yl)piperidin-1-yl)-4-methoxyphenyl)-3-(thiophen-2-yl)acrylamide] | 45.6 nM
COc1cc(N2CCC(N3CCN(CCCC#Cc4cccc5c4CN(C4CCC(=O)NC4=O)C5=O)CC3)CC2)c(NC(=O)/C=C/CN2CCCCC2)cc1Nc1ncc(Cl)c(Nc2ccccc2P(C)(C)=O)n1 (stereo not shown) [Compound D584, (E)-N-(5-((5-chloro-4-((2-(dimethylphosphoryl)phenyl)amino)pyrimidin-2-yl)amino)-2-(4-(4-(5-(2-(2,6-dioxopiperidin-3-yl)-1-oxoisoindolin-4-yl)pent-4-yn-1-yl)piperazin-1-yl)piperidin-1-yl)-4-methoxyphenyl)-4-(piperidin-1-yl)but-2-enamide] | 216 nM
C=C(Cl)C(=O)Nc1cc(Nc2ncc(Cl)c(Nc3ccccc3P(C)(C)=O)n2)c(OC)cc1N1CCC(N2CCN(CCCC#Cc3cccc4c3CN(C3CCC(=O)NC3=O)C4=O)CC2)CC1 (stereo not shown) [Compound D597, 2-chloro-N-(5-((5-chloro-4-((2-(dimethylphosphoryl)phenyl)amino)pyrimidin-2-yl)amino)-2-(4-(4-(5-(2-(2,6-dioxopiperidin-3-yl)-1-oxoisoindolin-4-yl)pent-4-yn-1-yl)piperazin-1-yl)piperidin-1-yl)-4-methoxyphenyl)acrylamide] | 460 nM
CC#CC(=O)Nc1cc(Nc2ncc(Cl)c(Nc3ccccc3P(C)(C)=O)n2)c(OC)cc1N1CCC(N2CCN(CCCCC#Cc3ccc4c(c3)CN(C3CCC(=O)NC3=O)C4=O)CC2)CC1 (stereo not shown) [Compound D602, N-(5-((5-chloro-4-((2-(dimethylphosphoryl)phenyl)amino)pyrimidin-2-yl)amino)-2-(4-(4-(6-(2-(2,6-dioxopiperidin-3-yl)-1-oxoisoindolin-5-yl)hex-5-yn-1-yl)piperazin-1-yl)piperidin-1-yl)-4-methoxyphenyl)but-2-ynamide] | 57.3 nM
COc1cc(N2CCC(N3CCN(CCCC#Cc4cccc5c4CN(C4CCC(=O)NC4=O)C5=O)CC3)CC2)c(NC(=O)/C=C/C(F)(F)F)cc1Nc1ncc(Br)c(Nc2ccccc2P(C)(C)=O)n1 (stereo not shown) [Compound D603, (E)-N-(5-((5-bromo-4-((2-(dimethylphosphoryl)phenyl)amino)pyrimidin-2-yl)amino)-2-(4-(4-(5-(2-(2,6-dioxopiperidin-3-yl)-1-oxoisoindolin-4-yl)pent-4-yn-1-yl)piperazin-1-yl)piperidin-1-yl)-4-methoxyphenyl)-4,4,4-trifluorobut-2-enamide] | 37.1 nM
CC#CC(=O)Nc1cc(Nc2ncc(Br)c(Nc3ccccc3P(C)(C)=O)n2)c(OC)cc1N1CCC(N2CCN(CCCC#Cc3cccc4c3CN(C3CCC(=O)NC3=O)C4=O)CC2)CC1 (stereo not shown) [Compound D604, N-(5-((5-bromo-4-((2-(dimethylphosphoryl)phenyl)amino)pyrimidin-2-yl)amino)-2-(4-(4-(5-(2-(2,6-dioxopiperidin-3-yl)-1-oxoisoindolin-4-yl)pent-4-yn-1-yl)piperazin-1-yl)piperidin-1-yl)-4-methoxyphenyl)but-2-ynamide] | 44.4 nM
COc1cc(N2CCC(N3CCN(CCCC#Cc4cccc5c4CN(C4CCC(=O)NC4=O)C5=O)CC3)CC2)c(NC(=O)C#CCO)cc1Nc1ncc(Cl)c(Nc2ccccc2P(C)(C)=O)n1 (stereo not shown) [Compound D628, N-(5-((5-chloro-4-((2-(dimethylphosphoryl)phenyl)amino)pyrimidin-2-yl)amino)-2-(4-(4-(5-(2-(2,6-dioxopiperidin-3-yl)-1-oxoisoindolin-4-yl)pent-4-yn-1-yl)piperazin-1-yl)piperidin-1-yl)-4-methoxyphenyl)-4-hydroxybut-2-ynamide] | 325 nM
CCCC#CC(=O)Nc1cc(Nc2ncc(Cl)c(Nc3ccccc3P(C)(C)=O)n2)c(OC)cc1N1CCC(N2CCN(CCCC#Cc3cccc4c3CN(C3CCC(=O)NC3=O)C4=O)CC2)CC1 (stereo not shown) [Compound D631, N-(5-((5-chloro-4-((2-(dimethylphosphoryl)phenyl)amino)pyrimidin-2-yl)amino)-2-(4-(4-(5-(2-(2,6-dioxopiperidin-3-yl)-1-oxoisoindolin-4-yl)pent-4-yn-1-yl)piperazin-1-yl)piperidin-1-yl)-4-methoxyphenyl)hex-2-ynamide] | 48.1 nM

Continued, values first:

GI50 | Compound
31.7 nM | COc1cc(N2CCC(N3CCN(CCCC#Cc4cccc5c4CN(C4CCC(=O)NC4=O)C5=O)CC3)CC2)c(NC(=O)/C=C/C(F)(F)F)cc1Nc1ncc(Cl)c(Nc2ccccc2P(C)(C)=O)n1 (stereo not shown) [Compound D596, N-(5-((5-chloro-4-((2-(dimethylphosphoryl)phenyl)amino)pyrimidin-2-yl)amino)-2-(4-(4-(5-(2-(2,6-dioxopiperidin-3-yl)-1-oxoisoindolin-4-yl)pent-4-yn-1-yl)piperazin-1-yl)piperidin-1-yl)-4-methoxyphenyl)-4,4,4-trifluorobut-2-enamide]
144 nM | C=CC(=O)Nc1cc(Nc2ncc(Cl)c(Nc3ccccc3P(C)(C)=O)n2)c(OC)cc1N1CCC(N2CCN(CCCCC#Cc3ccc4c(c3)CN(C3CCC(=O)NC3=O)C4=O)CC2)CC1 (stereo not shown) [Compound D601, N-(5-((5-chloro-4-((2-(dimethylphosphoryl)phenyl)amino)pyrimidin-2-yl)amino)-2-(4-(4-(6-(2-(2,6-dioxopiperidin-3-yl)-1-oxoisoindolin-5-yl)hex-5-yn-1-yl)piperazin-1-yl)piperidin-1-yl)-4-methoxyphenyl)acrylamide]
46.7 nM | COc1cc(N2CCC(N3CCN(CCCCC#Cc4cccc5c4CN(C4CCC(=O)NC4=O)C5=O)CC3)CC2)c(NC(=O)/C=C/C(F)(F)F)cc1Nc1ncc(Cl)c(Nc2ccccc2P(C)(C)=O)n1 (stereo not shown) [Compound D620, N-(5-((5-chloro-4-((2-(dimethylphosphoryl)phenyl)amino)pyrimidin-2-yl)amino)-2-(4-(4-(6-(2-(2,6-dioxopiperidin-3-yl)-1-oxoisoindolin-4-yl)hex-5-yn-1-yl)piperazin-1-yl)piperidin-1-yl)-4-methoxyphenyl)-4,4,4-trifluorobut-2-enamide]
258 nM | COc1cc(N2CCC(N3CCN(CCCC#Cc4ccc5c(c4)CN(C4CCC(=O)NC4=O)C5=O)CC3)CC2)c(NC(=O)/C=C/C(F)(F)F)cc1Nc1ncc(Cl)c(Nc2ccccc2P(C)(C)=O)n1 (stereo not shown) [Compound D622, N-(5-((5-chloro-4-((2-(dimethylphosphoryl)phenyl)amino)pyrimidin-2-yl)amino)-2-(4-(4-(5-(2-(2,6-dioxopiperidin-3-yl)-1-oxoisoindolin-5-yl)pent-4-yn-1-yl)piperazin-1-yl)piperidin-1-yl)-4-methoxyphenyl)-4,4,4-trifluorobut-2-enamide]
94.3 nM | COc1cc(N2CCC(N3CCN(CCCCC#Cc4ccc5c(c4)CN(C4CCC(=O)NC4=O)C5=O)CC3)CC2)c(NC(=O)/C=C/C(F)(F)F)cc1Nc1ncc(Cl)c(Nc2ccccc2P(C)(C)=O)n1 (stereo not shown) [Compound D623, N-(5-((5-chloro-4-((2-(dimethylphosphoryl)phenyl)amino)pyrimidin-2-yl)amino)-2-(4-(4-(6-(2-(2,6-dioxopiperidin-3-yl)-1-oxoisoindolin-5-yl)hex-5-yn-1-yl)piperazin-1-yl)piperidin-1-yl)-4-methoxyphenyl)-4,4,4-trifluorobut-2-enamide]
